Measured values: publication PMC10454375, “Cell-Impermeable Inhibitors Confirm That Intracellular Human Transglutaminase 2 Is Responsible for the Transglutaminase-Associated Cancer Phenotype” (International Journal of Molecular Sciences, 2023)
Peptide text beside a SMILES is read from it. * marks the point of attachment. X1 = C=CC(=O)NCCCCC(NC(=O)OCc1ccccc1)C(=O)N1CCN(C(=O)C(CCC(=O)*)NC(=O)c2cccc3ccccc23)CC1

Target: T1, Recombinant human TG2 (Homo sapiens, UniProt P21980)
T1 construct: GST (with PSP protease site, plasmid pGST-PSP-rhTG2) (N, cleaved yes); made in house; host or cells: E. coli (BL21)
T1 sequence (P21980 1-687): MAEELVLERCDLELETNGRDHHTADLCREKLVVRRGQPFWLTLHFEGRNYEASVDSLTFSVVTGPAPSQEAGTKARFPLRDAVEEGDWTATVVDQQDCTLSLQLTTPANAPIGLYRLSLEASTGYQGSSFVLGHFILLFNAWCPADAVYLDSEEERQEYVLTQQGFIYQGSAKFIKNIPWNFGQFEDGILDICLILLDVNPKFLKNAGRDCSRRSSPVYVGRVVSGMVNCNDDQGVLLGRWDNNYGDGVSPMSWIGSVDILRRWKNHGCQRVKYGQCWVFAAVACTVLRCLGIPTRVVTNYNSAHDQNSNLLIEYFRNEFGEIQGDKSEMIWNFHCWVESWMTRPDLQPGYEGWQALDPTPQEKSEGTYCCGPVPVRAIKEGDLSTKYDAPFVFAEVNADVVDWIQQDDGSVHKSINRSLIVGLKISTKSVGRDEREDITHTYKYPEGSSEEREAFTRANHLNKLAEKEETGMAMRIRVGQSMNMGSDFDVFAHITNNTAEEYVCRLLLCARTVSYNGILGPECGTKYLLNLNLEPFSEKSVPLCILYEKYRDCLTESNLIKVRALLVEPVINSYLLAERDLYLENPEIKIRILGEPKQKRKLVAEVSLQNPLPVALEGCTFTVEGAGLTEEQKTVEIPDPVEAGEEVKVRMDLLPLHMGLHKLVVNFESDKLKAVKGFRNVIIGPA
Experiment: rhTG2 inhibition assay, continuous chromogenic substrate AL5, Kitz and Wilson conditions
Assay type: biochemical
Conditions: for kinact / Ki: * compounds fitted to double reciprocal model, 25 °C, pH 6.9, 100 µM AL5; for kinact/KI: * double reciprocal model, ** lowest concentrations of saturation plot fitted to a linear model; for Ki: irreversible inhibition
Text: Relative to the original scaffold, we expected the potency of these novel chemical biology tools to decrease slightly, due to the additional bulk incorporated on the glutamate sidechain. Although we expected the sidechain moiety to be directed into bulk solvent, we were concerned that its mass and charge would disfavor the binding interaction. Therefore, we kinetically characterized these probes as rigorously as possible, in order to determine their relative affinity and reactivity. For most inhibitors we have made, including the parent inhibitor AA9 (Figure 1), we have been able to measure kinetic parameters under Kitz and Wilson conditions. This experimental approach is based on the use of a continuous activity assay and the measurement of first-order rate constants for the time-dependent inactivation of enzyme (see Figure 2A and Figures S1–S5 in Supplementary Materials). The dependence of these observed rate constants (kobs) on the inhibitor concentration divided by alpha ([I]/α) can then be fitted to a hyperbolic saturation model where the upper plateau represents the rate constant of inactivation (kinact), and the concentration providing half the rate constant of inactivation represents KI (Figure 2B). […] To compensate for this, the overall efficiency of the inhibitor (kinact/KI) can be derived from the slope of the linear region of the saturation plot (Figure 2C). To gauge the individual parameters, a double reciprocal fitting was also employed where KI can be calculated from the x-axis intercept and kinact can be calculated from the y-axis intercept (Figure 2D).
Recombinant human TG2 was expressed and purified using previously published protocols. The inhibition was monitored using a continuous chromogenic substrate AL5 [38] under Kitz and Wilson conditions. In brief, 125 µL of assay buffer composed of 111.11 mM MOPS, 15.56 CaCl2 pH 6.9 was added to a 1.5 mL Eppendorf tube to achieve final assay concentrations of 50 mM MOPS and […] CaCl2. To the tube was then added the respective concentration of inhibitor from an aqueous working stock (<5% DMSO final conditions). Various volumes of water were then added to ensure the final volumes were equal. The AL5 substrate was added to the Eppendorf tube as a 5 µL 5.56 mM solution in DMSO to obtain a final assay concentration of 100 µM. A 96-well polystyrene microplate then had 180 µL of the assay mixture added to it. The enzymatic reaction was finally initiated by addition of 20 µL 5 mU prediluted TG2 in assay buffer using a multichannel pipette. The reaction was monitored at 405 nm using a BioTek Synergy 4 plate reader for 20 min at 25 °C. A positive control with no inhibitor and a blank with no enzyme nor inhibitor were also included. The blank subtracted kinetic curves were then analyzed. The observed first-order rate constants of inactivation were gathered through a one-phase association model using the GraphPad software package. The rate constants were then fit to various models to elucidate the inhibition parameters. If saturation was achieved, they were fit to a saturation model versus the inhibitor concentration divided by alpha (where α=1+Substrate/Km ). A linear regression of the linear region of this saturation fitting was calculated to obtain a ratio of kinact/KI. A further double reciprocal model was used if saturation could not be observed due to the limitations in sensitivity of the assay or if solubility issues were present.

Structure (SMILES) | kinact [s⁻¹] | kinact/KI [M⁻¹ s⁻¹] | Ki [µM]
C=CC(=O)NCCCCC(NC(=O)OCc1ccccc1)C(=O)N1CCN(C(=O)C(CCC(=O)NCC(=O)NCC(=O)NCC(=O)NC(CC(=O)O)C(=O)NC(CC(=O)O)C(=O)NC(CC(=O)O)C(=O)O)NC(=O)c2cccc3ccccc23)CC1 (stereo not drawn) [Compound 18] (X1-GGGDDD-OH; configuration not given here) | 0.0388 | 9380 | 4.1 ± 2.1
C=CC(=O)NCCCCC(NC(=O)OCc1ccccc1)C(=O)N1CCN(C(=O)C(CCC(=O)NCCCCCC(=O)NC(CC(=O)O)C(=O)NC(CC(=O)O)C(=O)NC(CC(=O)O)C(=O)O)NC(=O)c2cccc3ccccc23)CC1 (stereo not drawn) [Compound 17] | 0.0065 | 6820 | 1 ± 0.3
